Experimental data from patent publication US20190169218A1, “AMPHIPATHIC COMPOUND HAVING NOVEL PENTA-SACCHARIDE HYDROPHILIC GROUP AND USE THEREOF” (Industry-University Cooperation Foundation Hanyang …, priority 2016, published 2019).

Tests used:
[1] = molecular target: T1, Salmonella typhimurium melibiose permease (MelB) (Salmonella typhimurium, UniProt P30878); experiment: MelB extraction efficiency and thermal stability by SDS-PAGE and western immunoblotting; details: 1.5 wt %, 0° C., 90 minutes (similar results at 45° C.)
T1 construct: made in house; host or cells: DW2 cells (melB and lacZY), Salmonella typhimurium DW2; plasmid pK95AHB/WT MelBst/CH10
Experimental: The ability of PSAs or PSEs to extract (solubilize) MelBst (Salmonella typhimurium melibiose permease) proteins and stabilize the structures thereof was measured. MelB proteins were extracted using PSAs, PSEs or DDM, and the amount of the extracted proteins and structural stability thereof were quantitatively analyzed by SDS-PAGE and western immunoblotting. The protein extraction efficiency and thermally stabilizing ability of the amphipathic compounds were simultaneously evaluated by extracting MelB proteins at four temperatures (0, 45, 55 or 65° C.) for 90 minutes using the amphipathic compounds at a concentration of 1.5 wt %.
Specifically, according to the method described in the journal article (P. S. Chae, et al., Chemistry. 2013, 19, 15645-15651.) published by the present inventors, proteins (MelBst) were produced using a plasmid pK95AHB/WT MelBst/CH10 containing a gene construct encoding wild-type MelB having 10×His tags at the C-terminus and Salmonella typhimurium DW2 cells (melB and lacZY). According to the method described in the journal article (A. S. Ethayathulla et al., Nat. Commun. 2014, 5, 3009), cells were cultured and the cell membranes were obtained from the cultured cells. Protein analysis was performed using a Micro BCA kit (Thermo Scientific, Rockford, Ill.). To measure solubilization/stability, membrane samples (the final concentration of membrane proteins was 10 mg/mL) containing MelBst were mixed with a solubilization buffer solution (20 mM sodium phosphate, pH 7.5, 200 mM NaCl, 10% glycerol and 20 mM melibiose) containing DDM, PSAs (PSA-C11) or PSEs (PSE-C9, PSE-C11, PSE-C13) at a concentration of 1.5% (w/v). Extracts were incubated at four different temperatures (0, 45, 55 and 65° C.) for 90 minutes. Fractions were removed by ultracentrifugation at 355,590 g for 45 minutes using a Beckman Optima™ MAX ultracentrifuge equipped with a No. 4 TLA-100 rotor. 20 μg of proteins was separated using a 15% SDS-PAGE gel. Next, immunoblotting was performed using Penta-His-HRP antibodies (Qiagen, Germantown, Md.). After performing SDS-PAGE and immunoblotting, the amount of solubilized MelB was quantitated and expressed as a percentage of the amount of MelB measured in the control group.

[2] = molecular target: T2, boron transporter (BOR1) BOR1-GFP fusion protein (Arabidopsis thaliana, UniProt Q8VYR7); experiment: structural (thermal) stability of solubilized BOR1-GFP by fluorescence-based size exclusion chromatography (FSEC); details: heated at 40° C. for 10 minutes, 1 wt % compound
T2 construct: made in house; host or cells: Saccharomyces cerevisiae FGY217
Experimental: The ability of PSAs or PSEs to stabilize the structure of boron transporter (BOR1) was measured in an aqueous solution. That is, the BOR1 protein solubilized in each amphipathic compound was denatured by heating, and then structural stability of BOR1 was measured using fluorescence-based size exclusion chromatography (FSEC).
(§1) Specifically, Arabidopsis thaliana-derived BOR1 was expressed in the form of a fusion protein having a GFP tag at the C-terminus in Saccharomyces cerevisiae FGY217 cells. The cells were grown in an URA-medium supplemented with 0.1% glucose. 2% galactose was added to the cell culture to induce protein expression and the cells were cultured at 20° C. for 18 hours (see Drew, D. et al., Nat. Protoc. 2008, 3, 784-798.). After culture, the cells were harvested and used to obtain the cell membranes (see Leung, J. et al., Protein Expr. Purif. 2010, 72, 139-146.). Membranes containing BOR1-GFP fusion proteins were diluted to a final total protein concentration of 2.8 mg/mL in PBS (pH7.4) supplemented with 1 wt % DDM, 1 wt % PSAs (PSA-C9, PSA-C10 or PSA-C11) or 1 wt % PSEs (PSE-C9, PSE-C11 or PSE-C13). The diluted samples were incubated at 4° C. for 1 hour with gentle shaking, and insoluble substances were removed by centrifugation at 14,000 g for 1 hour at 4° C. Supernatants containing the dissolved protein samples were incubated for 10 minutes at the specified temperature (35, 40, 45 or 50° C.), and strongly agglutinated proteins were removed by centrifugation at 14,000 g for 10 minutes at 4° C. 200 μL aliquots were taken from the supernatant and injected into a Superose 6 10/300 column equilibrated with 20 mM Tris-HCl (pH 7.5), 150 mM NaCl and 0.03% DDM. Each elution fraction was collected from a retention volume of 6.4 mL (i.e., after 6.4 mL of solution had passed), and added to a well of a clear bottom 96-well plate at a volume of 200 μL. GFP fluorescence generated in each fraction was measured using an excitation wavelength of 470 nm and an emission wavelength of 512 nm.

[3] = hydrodynamic radius of micelles by dynamic light scattering (DLS); type: physicochemical; details: compound at 1.0 wt %
Experimental: Methods of measuring the radius of micelles are not particularly limited, and methods widely known in the art may be used. For example, dynamic light scattering (DLS) may be used.
(§2) Specifically, critical micellar concentrations (CMCs) were measured using hydrophobic fluorescent staining and diphenylhexatriene (DPH), and the hydrodynamic radii (Rh) of micelles formed by each compound at a concentration of 1.0 wt % were measured using dynamic light scattering (DLS). The results were compared with results obtained from an existing amphipathic molecule (detergent), DDM, and are shown in Table 1.
When measuring, each of PSAs, PSEs and TPSs was used at a concentration of 1.0 wt %.

[4] = molecular target: T2, boron transporter (BOR1) BOR1-GFP fusion protein; experiment: solubilization (extraction) of BOR1-GFP fusion protein from membranes; details: amphipathic compound at 1.0 wt %
Experimental: The ability of PSAs and PSEs to solubilize membrane proteins and to stabilize the structures of membrane proteins was evaluated using boron transporter (BOR1), a membrane protein. BOR1 was isolated from Arabidopsis thaliana, and was expressed in the form of a fusion protein having a GFP tag at the C-terminus in Saccharomyces cerevisiae FGY217 cells. This fusion protein has been proven to have boron transporting activity and is therefore involved in both structural and functional analysis of membrane proteins.
The ability of amphipathic compound PSAs and PSEs to solubilize the boron transporter (BOR1) membrane protein was evaluated.
Specifically, membranes containing BOR1-GFP fusion proteins were treated with an existing amphipathic compound (DDM), PSAs (PSA-C9, PSA-C10 and PSA-C11), or PSEs (PSE-C9, PSE-C11 and PSE-C13) at a concentration of 1.0 wt %. The solubilization efficiencies of PSA-C9, PSA-C10 and PSE-C9 were about 80% similar to the solubilization efficiency of DDM. In particular, the BOR1-GFP protein was quantitatively extracted (˜100%) using PSE-C11 having medium length chains, thus confirming that PSE-C11 is particularly useful for solubilization of BOR1-GFP.
as §1

[5] = critical micelle concentration (CMC) by hydrophobic fluorescent staining with diphenylhexatriene (DPH); type: physicochemical
Excerpt: Methods of measuring CMC are not particularly limited, and methods widely known in the art may be used. For example, a fluorescence staining method using diphenylhexatriene (DPH) may be used.
To characterize PSAs of Preparation Examples 1 to 3 synthesized according to the synthetic method of Example 1; PSEs of Preparation Examples 4 to 7 synthesized according to the synthetic method of Example 2; TPS-Es and TPS-ELs of Preparation Examples 8 to 14 synthesized according to the synthetic method of Example 3; and TPS-As of Preparation Examples 15 to 17 synthesized according to the synthetic method of Example 4, the critical micellar concentrations (CMCs) of PSAs, PSEs and TPSs and the hydrodynamic radii (Rh) of formed micelles were measured.
as §2

T1 sequence (P30878 whole entry): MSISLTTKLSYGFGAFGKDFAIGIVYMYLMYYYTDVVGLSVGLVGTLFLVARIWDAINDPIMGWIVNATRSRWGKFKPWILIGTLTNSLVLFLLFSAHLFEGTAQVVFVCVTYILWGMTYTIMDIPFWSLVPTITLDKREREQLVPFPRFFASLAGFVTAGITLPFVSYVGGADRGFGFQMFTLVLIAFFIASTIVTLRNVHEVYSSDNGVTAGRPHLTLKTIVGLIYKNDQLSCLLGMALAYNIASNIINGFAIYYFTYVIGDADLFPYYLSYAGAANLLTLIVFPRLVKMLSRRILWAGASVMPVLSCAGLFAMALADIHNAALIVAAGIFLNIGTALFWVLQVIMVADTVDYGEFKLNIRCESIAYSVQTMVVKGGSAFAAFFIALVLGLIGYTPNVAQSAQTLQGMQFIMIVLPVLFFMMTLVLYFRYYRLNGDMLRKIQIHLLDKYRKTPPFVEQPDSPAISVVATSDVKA

CCCCCCCCCOCC(COCCCCCCCCC)O[C@@H]1OC(CO[C@@H]2OC(CO)[C@@H](O)C(O)C2O)[C@@H](O[C@@H]2OC(CO)[C@@H](O)C(O)C2O)C(O[C@@H]2OC(CO)[C@@H](O)C(O)C2O)C1O[C@@H]1OC(CO)[C@@H](O)C(O)C1O (stereo partly drawn) [PSE-C9]
MelB extraction efficiency [1]: extracted at an efficiency similar to the efficiency observed in the case of DDM
structural stability of solubilized BOR1-GFP after heating (RFU, FSEC) [2]: greatly improved compared to DDM
Rh (nm), hydrodynamic radius of micelles [3]: 3.19 ± 0.04 nm
solubilization efficiency of BOR1-GFP [4]: about 80%
CMC [5]: ~0.026 mM
CMC (wt %) [5]: ~0.0030 wt %

CCCCCCCCCC(CCCCCCCCC)CO[C@@H]1OC(CO[C@@H]2OC(CO)[C@@H](O)C(O)C2O)[C@@H](O[C@@H]2OC(CO)[C@@H](O)C(O)C2O)C(O[C@@H]2OC(CO)[C@@H](O)C(O)C2O)C1O[C@@H]1OC(CO)[C@@H](O)C(O)C1O (stereo partly drawn) [PSA-C9]
Rh (nm), hydrodynamic radius of micelles [3]: 2.94 ± 0.05 nm
solubilization efficiency of BOR1-GFP [4]: about 80%
CMC [5]: ~0.014 mM
CMC (wt %) [5]: ~0.0016 wt %

CCCCCCCCCCC(CCCCCCCCCC)CO[C@@H]1OC(CO[C@@H]2OC(CO)[C@@H](O)C(O)C2O)[C@@H](O[C@@H]2OC(CO)[C@@H](O)C(O)C2O)C(O[C@@H]2OC(CO)[C@@H](O)C(O)C2O)C1O[C@@H]1OC(CO)[C@@H](O)C(O)C1O (stereo partly drawn) [PSA-C10]
structural stability of solubilized BOR1-GFP after heating (RFU, FSEC) [2]: remarkably improved as compared to DDM and PSA-C9
Rh (nm), hydrodynamic radius of micelles [3]: 3.10 ± 0.05 nm
solubilization efficiency of BOR1-GFP [4]: about 80%
CMC [5]: ~0.009 mM
CMC (wt %) [5]: ~0.0010 wt %
